# Source: patent US11912701B2, “Protein kinase inhibitors for promoting liver regeneration or reducing or preventing hepatocyte death” (HEPAREGENIX GMBH, priority 2018, dated 2024)
# Columns and labels:
# Type in all cases: biochemical
# JNK1 = JNK1 (Homo sapiens, UniProt P45983); assay: 33PanQinase enzyme assay, JNK1; design: purchased ProQinase GmbH, Freiburg, Germany (33PanQinase Assay Service); conditions: ratio IC50(JNK1)/IC50(MKK4)
# Summary of the method: (§1)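 Off-target selectivity is the ratio IC50(off-target)/IC50(MKK4), with IC50 values from least-squares fitting and single-point data as % residual activity. Reactions of enzyme/substrate mix, ATP and compound ran 60 min at 30° C before H3PO4 stop; ^33P incorporation read on a scintillation counter.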
# BRaf = target: T1, BRaf (Homo sapiens, UniProt P15056); assay: 33PanQinase enzyme assay, BRaf; conditions: ratio IC50(BRaf)/IC50(MKK4)
# T1 construct: purchased ProQinase GmbH, Freiburg, Germany (33PanQinase Assay Service)
# Summary of the method: as §1
# MKK7 = target: T2, MKK7 (Homo sapiens, UniProt O14733); assay: 33PanQinase enzyme assay, MKK7; design: purchased ProQinase GmbH, Freiburg, Germany (33PanQinase Assay Service); conditions: ratio IC50(MKK7)/IC50(MKK4)
# T2 sequence (O14733 1-419): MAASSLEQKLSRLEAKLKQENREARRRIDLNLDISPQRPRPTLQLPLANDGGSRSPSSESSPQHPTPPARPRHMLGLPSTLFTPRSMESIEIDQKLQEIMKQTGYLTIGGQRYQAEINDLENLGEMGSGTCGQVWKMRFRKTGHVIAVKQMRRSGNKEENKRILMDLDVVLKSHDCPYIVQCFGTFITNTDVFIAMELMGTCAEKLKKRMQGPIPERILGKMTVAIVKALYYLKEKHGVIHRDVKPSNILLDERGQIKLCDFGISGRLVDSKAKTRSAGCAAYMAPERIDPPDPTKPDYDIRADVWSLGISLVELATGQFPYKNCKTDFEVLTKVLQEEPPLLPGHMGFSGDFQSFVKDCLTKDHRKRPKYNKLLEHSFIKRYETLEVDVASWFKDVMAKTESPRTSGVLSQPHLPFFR
# Summary of the method: as §1
# MKK4 = target: T3, MKK4 (Homo sapiens, UniProt P45985); assay: 33PanQinase enzyme assay, MKK4; conditions: assay 'IC50'; read-out: Potency MKK4 (IC50)
# T3 construct: purchased ProQinase GmbH, Freiburg, Germany (33PanQinase Assay Service)
# T3 sequence (P45985 1-399): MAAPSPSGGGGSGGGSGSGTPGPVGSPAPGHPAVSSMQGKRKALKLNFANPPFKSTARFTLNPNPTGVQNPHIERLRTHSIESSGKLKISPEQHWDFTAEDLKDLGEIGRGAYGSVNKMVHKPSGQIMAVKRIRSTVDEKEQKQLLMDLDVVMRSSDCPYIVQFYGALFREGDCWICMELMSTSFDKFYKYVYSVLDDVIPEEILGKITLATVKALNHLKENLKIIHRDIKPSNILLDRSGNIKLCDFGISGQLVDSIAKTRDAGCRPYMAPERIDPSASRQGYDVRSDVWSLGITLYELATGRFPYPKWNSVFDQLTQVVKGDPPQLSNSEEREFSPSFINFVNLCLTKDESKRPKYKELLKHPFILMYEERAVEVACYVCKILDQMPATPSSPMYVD
# Summary of the method: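 Inhibition measured as 33Pi transfer to substrate after a 60-min, 30 °C reaction, acid-stopped and scintillation-counted.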
# T1 sequence (P15056 whole entry, species assumed): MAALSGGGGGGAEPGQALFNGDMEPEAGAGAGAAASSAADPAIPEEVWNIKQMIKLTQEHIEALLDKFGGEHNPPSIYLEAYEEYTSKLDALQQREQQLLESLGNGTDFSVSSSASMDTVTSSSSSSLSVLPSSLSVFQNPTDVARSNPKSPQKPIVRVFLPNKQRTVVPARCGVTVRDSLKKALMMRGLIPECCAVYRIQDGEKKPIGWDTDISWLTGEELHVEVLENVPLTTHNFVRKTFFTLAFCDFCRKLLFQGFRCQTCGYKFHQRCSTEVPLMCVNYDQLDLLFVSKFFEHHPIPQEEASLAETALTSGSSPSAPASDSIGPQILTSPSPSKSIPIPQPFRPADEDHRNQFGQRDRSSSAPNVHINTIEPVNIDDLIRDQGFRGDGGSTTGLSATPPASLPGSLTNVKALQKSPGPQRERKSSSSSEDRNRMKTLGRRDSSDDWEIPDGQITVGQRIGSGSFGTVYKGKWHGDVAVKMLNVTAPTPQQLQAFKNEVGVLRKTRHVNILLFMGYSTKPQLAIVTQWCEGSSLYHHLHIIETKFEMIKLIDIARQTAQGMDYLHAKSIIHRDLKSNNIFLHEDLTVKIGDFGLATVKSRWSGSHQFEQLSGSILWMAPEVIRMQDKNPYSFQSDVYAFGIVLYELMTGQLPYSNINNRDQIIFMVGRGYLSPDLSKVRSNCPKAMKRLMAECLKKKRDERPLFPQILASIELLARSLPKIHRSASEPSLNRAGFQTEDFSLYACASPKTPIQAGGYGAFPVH
# Sequence of JNK1 (P45983 whole entry): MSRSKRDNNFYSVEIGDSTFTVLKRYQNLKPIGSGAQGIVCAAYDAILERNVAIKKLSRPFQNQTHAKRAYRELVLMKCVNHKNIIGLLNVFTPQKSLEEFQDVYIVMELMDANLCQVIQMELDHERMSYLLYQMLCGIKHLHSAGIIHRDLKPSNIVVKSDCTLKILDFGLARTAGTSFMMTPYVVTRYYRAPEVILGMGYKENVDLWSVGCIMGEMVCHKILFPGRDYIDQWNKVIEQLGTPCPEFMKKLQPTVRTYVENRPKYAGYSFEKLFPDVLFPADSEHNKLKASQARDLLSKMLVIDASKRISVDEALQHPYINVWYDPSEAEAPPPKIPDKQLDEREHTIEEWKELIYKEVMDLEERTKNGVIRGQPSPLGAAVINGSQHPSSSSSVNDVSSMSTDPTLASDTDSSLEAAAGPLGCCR
SMILES,"Selectivity JNK1, IC50(off-target)/IC50(MKK4) (JNK1)","Selectivity IVIKK7, IC50(off-target)/IC50(MKK4) (MKK7)",IC50 (MKK4),"Selectivity Braf, IC50(off-target)/IC50(MKK4) (BRaf)"
"CCCS(=O)(=O)Nc1c(F)ccc(C(=O)c2c[nH]c3ncc(-c4cnc(SC(C)C)nc4)cc23)c1F [Example 197, N-(2,6-difluoro-3-(5-(2-(isopropylthio)pyrimidin-5-yl)-1H-pyrrolo[2,3-b]pyridine-3-carbonyl)phenyl)propane-1-sulfonamide]",++ (100 ≥ IC50(off-target)/IC50(MKK4) > 10),+++ (IC50(off-target)/IC50(MKK4) > 100),100 to 1000 nM,+++ (IC50(off-target)/IC50(MKK4) > 100)
"CCCS(=O)(=O)Nc1c(F)ccc(C(=O)c2c[nH]c3ncc(-c4cnc(N5CCN(CCO)CC5)nc4)cc23)c1F [Example 198, N-(2,6-difluoro-3-(5-(2-(4-(2-hydroxyethyl)piperazin-1-yl)pyrimidin-5-yl)-1H-pyrrolo[2,3-b]pyridine-3-carbonyl)phenyl)propane-1-sulfonamide]",++ (100 ≥ IC50(off-target)/IC50(MKK4) > 10),+++ (IC50(off-target)/IC50(MKK4) > 100),100 to 1000 nM,++ (100 ≥ IC50(off-target)/IC50(MKK4) > 10)
"CCCS(=O)(=O)Nc1c(F)ccc(C(=O)c2c[nH]c3ncc(-c4cnc(N5CCC5)nc4)cc23)c1F [Example 199, N-(3-(5-(2-(azetidin-1-yl)pyrimidin-5-yl)-1H-pyrrolo[2,3-b]pyridine-3-carbonyl)-2,6-difluorophenyl)propane-1-sulfonamide]",++ (100 ≥ IC50(off-target)/IC50(MKK4) > 10),+++ (IC50(off-target)/IC50(MKK4) > 100),< 100 nM,++ (100 ≥ IC50(off-target)/IC50(MKK4) > 10)
"CCCS(=O)(=O)Nc1c(F)ccc(C(=O)c2c[nH]c3ncc(-c4cnc(OCCCN(C)C)nc4)cc23)c1F [Example 200, N-(3-(5-(2-(3-(dimethylamino)propoxy)pyrimidin-5-yl)-1H-pyrrolo[2,3-b]pyridine-3-carbonyl)-2,6-difluorophenyl)propane-1-sulfonamide]",+ (10 ≥ IC50(off-target)/IC50(MKK4) > 3),+++ (IC50(off-target)/IC50(MKK4) > 100),1000 to 10000 nM,+ (10 ≥ IC50(off-target)/IC50(MKK4) > 3)
"CCCS(=O)(=O)Nc1c(F)ccc(C(=O)c2c[nH]c3ncc(-c4cnc(N5CC[C@@H](O)C5)nc4)cc23)c1F [Example 204, (R)-N-(2,6-difluoro-3-(5-(2-(3-hydroxypyrrolidin-1-yl)pyrimidin-5-yl)-1H-pyrrolo[2,3-b]pyridine-3-carbonyl)phenyl)propane-1-sulfonamide]",+++ (IC50(off-target)/IC50(MKK4) > 100),+++ (IC50(off-target)/IC50(MKK4) > 100),100 to 1000 nM,++ (100 ≥ IC50(off-target)/IC50(MKK4) > 10)
"CCCS(=O)(=O)Nc1c(F)ccc(C(=O)c2c[nH]c3ncc(-c4cnc(N5CC(O)C5)nc4)cc23)c1F [Example 205, N-(2,6-difluoro-3-(5-(2-(3-hydroxyazetidin-1-yl)pyrimidin-5-yl)-1H-pyrrolo[2,3-b]pyridine-3-carbonyl)phenyl)propane-1-sulfonamide]",++ (100 ≥ IC50(off-target)/IC50(MKK4) > 10),+++ (IC50(off-target)/IC50(MKK4) > 100),100 to 1000 nM,++ (100 ≥ IC50(off-target)/IC50(MKK4) > 10)
"CCCS(=O)(=O)Nc1c(F)ccc(C(=O)c2c[nH]c3ncc(-c4cnc(CC)nc4)cc23)c1F [Example 206, N-(3-(5-(2-ethylpyrimidin-5-yl)-1H-pyrrolo[2,3-b]pyridine-3-carbonyl)-2,6-difluorophenyl)propane-1-sulfonamide]",+++ (IC50(off-target)/IC50(MKK4) > 100),+++ (IC50(off-target)/IC50(MKK4) > 100),< 100 nM,+++ (IC50(off-target)/IC50(MKK4) > 100)
"CCCS(=O)(=O)Nc1c(F)ccc(C(=O)c2c[nH]c3ncc(-c4cnc(CF)nc4)cc23)c1F [Example 207, N-(2,6-difluoro-3-(5-(2-(fluoromethyl)pyrimidin-5-yl)-1H-pyrrolo[2,3-b]pyridine-3-carbonyl)phenyl)propane-1-sulfonamide]",++ (100 ≥ IC50(off-target)/IC50(MKK4) > 10),+++ (IC50(off-target)/IC50(MKK4) > 100),100 to 1000 nM,+++ (IC50(off-target)/IC50(MKK4) > 100)
"C#Cc1ncc(-c2cnc3[nH]cc(C(=O)c4ccc(F)c(NS(=O)(=O)CCC)c4F)c3c2)cn1 [Example 208, N-(3-(5-(2-ethynylpyrimidin-5-yl)-1H-pyrrolo[2,3-b]pyridine-3-carbonyl)-2,6-difluorophenyl)propane-1-sulfonamide]",+++ (IC50(off-target)/IC50(MKK4) > 100),++ (100 ≥ IC50(off-target)/IC50(MKK4) > 10),< 100 nM,++ (100 ≥ IC50(off-target)/IC50(MKK4) > 10)
"CCCS(=O)(=O)Nc1c(F)ccc(C(=O)c2c[nH]c3ncc(-c4cnc(-c5ccc6nc[nH]c6c5)nc4)cc23)c1F [Example 210, N-(3-(5-(2-(1H-benzo[d]imidazol-6-yl)pyrimidin-5-yl)-1H-pyrrolo[2,3-b]pyridine-3-carbonyl)-2,6-difluorophenyl)propane-1-sulfonamide]",+ (10 ≥ IC50(off-target)/IC50(MKK4) > 3),++ (100 ≥ IC50(off-target)/IC50(MKK4) > 10),1000 to 10000 nM,++ (100 ≥ IC50(off-target)/IC50(MKK4) > 10)

# Continued, in another order:
"Selectivity JNK1, IC50(off-target)/IC50(MKK4) (JNK1)","Selectivity IVIKK7, IC50(off-target)/IC50(MKK4) (MKK7)",IC50 (MKK4),SMILES,"Selectivity Braf, IC50(off-target)/IC50(MKK4) (BRaf)"
+++ (IC50(off-target)/IC50(MKK4) > 100),+++ (IC50(off-target)/IC50(MKK4) > 100),< 100 nM,"CCCS(=O)(=O)Nc1c(F)ccc(C(=O)c2c[nH]c3ncc(-c4cnc(C(C)(C)C)nc4)cc23)c1F [Example 196, N-(3-(5-(2-(tert-butyl)pyrimidin-5-yl)-1H-pyrrolo[2,3-b]pyridine-3-carbonyl)-2,6-difluorophenyl)propane-1-sulfonamide]",+++ (IC50(off-target)/IC50(MKK4) > 100)
+++ (IC50(off-target)/IC50(MKK4) > 100),+++ (IC50(off-target)/IC50(MKK4) > 100),< 100 nM,"CCCS(=O)(=O)Nc1c(F)ccc(C(=O)c2c[nH]c3ncc(-c4cnc(NCCO)nc4)cc23)c1F [Example 201, N-(2,6-difluoro-3-(5-(2-((2-hydroxyethyl)amino)pyrimidin-5-yl)-1H-pyrrolo[2,3-b]pyridine-3-carbonyl)phenyl)propane-1-sulfonamide]",+++ (IC50(off-target)/IC50(MKK4) > 100)
+++ (IC50(off-target)/IC50(MKK4) > 100),+++ (IC50(off-target)/IC50(MKK4) > 100),< 100 nM,"CCCS(=O)(=O)Nc1c(F)ccc(C(=O)c2c[nH]c3ncc(-c4cnc(N(C)CCO)nc4)cc23)c1F [Example 202, N-(2,6-difluoro-3-(5-(2-((2-hydroxyethyl)(methyl)amino)pyrimidin-5-yl)-1H-pyrrolo[2,3-b]pyridine-3-carbonyl)phenyl)propane-1-sulfonamide]",++ (100 ≥ IC50(off-target)/IC50(MKK4) > 10)
+++ (IC50(off-target)/IC50(MKK4) > 100),+++ (IC50(off-target)/IC50(MKK4) > 100),< 100 nM,"CCCS(=O)(=O)Nc1c(F)ccc(C(=O)c2c[nH]c3ncc(-c4cnc(N5CC[C@H](O)C5)nc4)cc23)c1F [Example 203, (S)-N-(2,6-difluoro-3-(5-(2-(3-hydroxypyrrolidin-1-yl)pyrimidin-5-yl)-1H-pyrrolo[2,3-b]pyridine-3-carbonyl)phenyl)propane-1-sulfonamide]",++ (100 ≥ IC50(off-target)/IC50(MKK4) > 10)
